Data on 18 compounds can be found in patent US20260109699A1, “AZOLE DERIVATIVES AS SHP2 INHIBITORS” (IRBM S.P.A., priority 2022, published 2026).

For orientation: pIC50 means the IC50 on a negative log10 scale, so that one unit is a factor of ten.

The target in experiment [1] is T1, SHP-2 enzyme (Met1-Leu525), SHP2wt (Homo sapiens, UniProt Q06124).
T1 construct: synthetized by Origene, Met1-Leu525, cat #TP750155; purchased Origene TP750155
T1 sequence (Q06124 1-525): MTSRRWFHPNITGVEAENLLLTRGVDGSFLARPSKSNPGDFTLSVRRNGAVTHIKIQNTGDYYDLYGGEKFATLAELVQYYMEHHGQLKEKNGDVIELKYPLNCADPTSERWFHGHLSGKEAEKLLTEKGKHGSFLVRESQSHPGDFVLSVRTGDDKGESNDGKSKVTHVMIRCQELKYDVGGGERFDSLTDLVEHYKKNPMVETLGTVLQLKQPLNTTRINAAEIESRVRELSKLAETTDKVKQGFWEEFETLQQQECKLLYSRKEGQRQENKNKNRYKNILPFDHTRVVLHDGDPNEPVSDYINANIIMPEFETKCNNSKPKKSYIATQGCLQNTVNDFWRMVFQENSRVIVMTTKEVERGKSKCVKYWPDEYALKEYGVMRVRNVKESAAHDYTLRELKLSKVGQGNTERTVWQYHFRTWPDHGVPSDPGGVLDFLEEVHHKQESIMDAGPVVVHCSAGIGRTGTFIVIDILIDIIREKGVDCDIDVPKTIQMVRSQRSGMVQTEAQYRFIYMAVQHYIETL
Put plainly: SHP2 inhibition enzymatic assay. It counts as biochemical. To be noted: 0.5 nM SHP-2 activated by 500 nM IRS1 peptide, 75 μM DiFMUP substrate. Here is the method: The assay was performed as described in YP Chen et al, Nature (535) 2016. Assay volume of 20 μL/well was assembled in 384 well black polystyrene low-binding microplates (Greiner), using the following buffer: 60 mM HEPES pH 7.2, 75 mM NaCl, 75 mM KCl, 1 mM EDTA pH 8, 0.05% tween-20, 5 mM DTT. The SHP-2 enzyme (synthetized by Origene, Met1-Leu525, cat #TP750155) was used at a final concentration of 0.5 nM. The enzyme was activated by 500 nM IRS1 peptide (sequence: H2N-LN(pY)IDLDLV(dPEG8)LST(pY)ASINFQK-amide; Wang et al., iScience 25,104009, Apr. 15, 2022, https://doi.org/10.1016/j.isci.2022.104009) and incubated with 75 μM DiFMUP (Sigma) as substrate.
Briefly, DMSO serially diluted testing compounds were transferred to the bottom of the assay plate. SHP2 was then added together with the IRS1 peptide 30 min post incubation, the DiFMUP substrate was added to the reaction and incubated 30 min at rt. Finally 5 μL of 160 μM bpV (potassium bisperoxo[1,10-phenanthroline]oxovanadate [V], Sigma) were added to stop and quench the reaction. The fluorescence was detected by a microplate reader (Envision, PerkinElmer) according to the DiFMUP excitation and emission wavelength. The lower the fluorescence the higher the SHP2 inhibition.
The activity of each compound dilution was calculated as percentage of inhibition between vehicle (DMSO, 0% inhibition) and no enzyme (100% inhibition). The percentage inhibition is fitted against the compound dilutions with a four-parameter logistic regression. The inflection point (i.e. the concentration at which half-maximal inhibition is achieved) is the IC50.
Legend: A indicates IC50 less or equal to 0.05 μM; B indicates IC50 greater than 0.05 μM and lower or equal to 0.3 μM.

Experiment [2] concerns phospho-ERK1/2 (Thr202/Tyr204). Nature of the experiment: Phospho-ERK cellular assay. It counts as cell-based. To be noted: Homo sapiens; KYSE-520 cells, 2 h at 37° C, TR-FRET; read-out: pERK IC50. The method, then: ERK phosphorylation was detected using the “Advanced phospho-ERK1/2 (Thr202/Tyr204)” TR-FRET kit (Cisbio, Cat #64AERPEG/H), following the manufacturer reagents and instructions.
Briefly, 20.000/well KYSE-520 cells (DSMZ ACC 371) were plated in 6 μL RPMI-1640 (Invitrogen) growth medium, into 384 white low-volume high base TC microplates (Greiner). After an overnight incubation, cells were treated with DMSO serial diluted compounds and incubated for 2 h at 37° C. After incubation, 2 μL/well of 4×Lysis Buffer (Cisbio 64KL1FDF), were added and incubated with cells for 30 min on gentle shaking. Finally, lysates were added with 2 μL/well of Eu cryptate (donor) and D2 (acceptor) conjugated antibodies (as provided by the Cisbio kit #64AERPEG/H) diluted 1:100 in Detection Buffer (as provided by the Cisbio kit #64AERPEG/H). Plates were then sealed and incubated at rt in the dark. After an overnight incubation, the TR-FRET signal was detected on a suitable reader (Envision, PerkinElmer).
The lower the TR-FRET signal the higher the higher the SHP2 inhibition in cells.
The activity of each compound dilution was calculated as percentage between vehicle DMSO treated cells and no cells, 0% inhibition and 100% inhibition respectively. The percentage activity is fitted against the compound dilutions with a four-parameter logistic regression. The inflection point (i.e. the concentration at which half-maximal inhibition is achieved) is the IC50.
Legend: “+” indicates IC50 equal or higher than 0.5 μM; “++” indicates IC50 less than 0.5 μM and higher or equal to 0.1 μM; “+++” indicates IC50 less than 0.1 μM.
For orientation: TR-FRET usually uses a lanthanide donor and a delayed reading to cut background.

pIC50: −log10 of the molar value.

For the compound `N[C@@H]1c2ccnn2CC12CCN(c1cnc(-c3cccc(Cl)c3Cl)cn1)CC2` [Example 31, (S)-1-(5-(2,3-dichlorophenyl)pyrazin-2-yl)-4′H,6′H-spiro[piperidine-4,5′-pyrrolo[1,2-b]pyrazol]-4′-amine], the pIC50 in experiment [1] is ≥ 7.30; in experiment [2], < 6.30.

In the case of `Cn1c(N2CCC3(CC2)Cn2nccc2[C@H]3N)ccc(-c2cccc(Cl)c2Cl)c1=O` [Example 11, (S)-6-(4′-amino-4′H,6′H-spiro[piperidine-4,5′-pyrrolo[1,2-b]pyrazol]-1-yl)-3-(2,3-dichlorophenyl)-1-methylpyridin-2(1H)-one], the pIC50 is 6.52 to 7.30 in experiment [1] and < 6.30 in experiment [2].

In the case of `N[C@@H]1c2c(F)ccn2CC12CCN(c1cnc(Sc3cccc(Cl)c3Cl)cn1)CC2` [Example 29, (S)-1-(5-((2,3-dichlorophenyl)thio)pyrazin-2-yl)-7′-fluoro-1′H,3′H-spiro[piperidine-4,2′-pyrrolizin]-1′-amine], the pIC50 was ≥ 7.30 in experiment [1] and > 7.00 in experiment [2].

Turning to `N[C@@H]1c2ccnn2CC12CCN(c1cnc(Sc3cccc(F)c3-n3cccn3)cn1)CC2` [Example 80, (S)-1-(5-((3-fluoro-2-(1H-pyrazol-1-yl)phenyl)thio)pyrazin-2-yl)-4′H,6′H-spiro[piperidine-4,5′-pyrrolo[1,2-b]pyrazol]-4′-amine], the pIC50 is ≥ 7.30 in experiment [1] and 6.30 to 7.00 in experiment [2].

Consider `N[C@@H]1c2ccnn2CC12CCN(c1cnc(Sc3cccc(-n4cccn4)c3F)cn1)CC2` [Example 81, (S)-1-(5-((2-fluoro-3-(1H-pyrazol-1-yl)phenyl)thio)pyrazin-2-yl)-4′H,6′H-spiro[piperidine-4,5′-pyrrolo[1,2-b]pyrazol]-4′-amine], for which the pIC50 in experiment [1] is ≥ 7.30; in experiment [2], > 7.00.

On to `Cn1c(N2CCC3(CC2)Cn2nccc2[C@H]3N)ncc(-c2cccc(F)c2F)c1=O` [Example 5, (S)-2-(4′-amino-4′H,6′H-spiro[piperidine-4,5′-pyrrolo[1,2-b]pyrazol]-1-yl)-5-(2,3-difluorophenyl)-3-methylpyrimidin-4(3H)-one], for which the pIC50 in experiment [1] was 6.52 to 7.30; in experiment [2], < 6.30.

Take `N[C@@H]1c2ccnn2CC12CCN(c1cnc(Sc3cc(F)cc(F)c3)cn1)CC2` [Example 50, (S)-1-(5-((3,5-difluorophenyl)thio)pyrazin-2-yl)-4′H,6′H-spiro[piperidine-4,5′-pyrrolo[1,2-b]pyrazol]-4′-amine]: the pIC50 in experiment [1] is ≥ 7.30; in experiment [2] it was > 7.00.

Regarding `Cc1nc(N2CCC3(CC2)Cn2ncc(F)c2[C@H]3N)cc(=O)n1-c1cccc(Cl)c1Cl` (atropisomer, axis not shown) [Example 1, (S)-6-(4′-amino-3′-fluoro-4′H,6′H-spiro[piperidine-4,5′-pyrrolo[1,2-b]pyrazol]-1-yl)-3-(2,3-dichlorophenyl)-2-methylpyrimidin-4(3H)-one], the pIC50 is ≥ 7.30 in experiment [1] and 6.30 to 7.00 in experiment [2].

As for `Cc1ccccc1Sc1cnc(N2CCC3(CC2)Cn2nccc2[C@H]3N)cn1` [Example 26, (S)-1-(5-(o-tolylthio)pyrazin-2-yl)-4′H,6′H-spiro[piperidine-4,5′-pyrrolo[1,2-b]pyrazol]-4′-amine], the pIC50 in experiment [1] was ≥ 7.30; in experiment [2], > 7.00.

As for `Cc1ccc(F)c(-c2ncc3c(N4CCC5(CC4)Cn4nccc4[C@H]5N)nccn23)c1Cl` [Example 16, (S)-1-(3-(2-chloro-6-fluoro-3-methylphenyl)imidazo[1,5-a]pyrazin-8-yl)-4′H,6′H-spiro[piperidine-4,5′-pyrrolo[1,2-b]pyrazol]-4′-amine], the pIC50 was 6.52 to 7.30 in experiment [1] and < 6.30 in experiment [2].

As to `N[C@@H]1c2ccnn2CC12CCN(c1cnc(Sc3cc(C(F)F)ccc3F)cn1)CC2` [Example 74, (S)-1-(5-((5-(difluoromethyl)-2-fluorophenyl)thio)pyrazin-2-yl)-4′H,6′H-spiro[piperidine-4,5′-pyrrolo[1,2-b]pyrazol]-4′-amine], the pIC50 is ≥ 7.30 in experiment [1] and 6.30 to 7.00 in experiment [2].

With `Cc1nc(N2CCC3(CC2)Cn2nccc2[C@H]3N)cnc1Sc1ccnc(C)c1F` [Example 4, (S)-1-(5-((3-fluoro-2-methylpyridin-4-yl)thio)-6-methylpyrazin-2-yl)-4′H,6′H-spiro[piperidine-4,5′-pyrrolo[1,2-b]pyrazol]-4′-amine], the pIC50 was ≥ 7.30 in experiment [1] and 6.30 to 7.00 in experiment [2].

In the case of `N[C@@H]1c2ccnn2CC12CCN(c1cnc(Sc3cccc(-n4ccnc4C(F)F)c3Cl)cn1)CC2` [Example 82, (S)-1-(5-((2-chloro-3-(2-(difluoromethyl)-1H-imidazol-1-yl)phenyl)thio)pyrazin-2-yl)-4′H,6′H-spiro[piperidine-4,5′-pyrrolo[1,2-b]pyrazol]-4′-amine], the pIC50 is ≥ 7.30 in experiment [1] and > 7.00 in experiment [2].

In the case of `Cc1cccc(Sc2cnc(N3CCC4(CC3)Cn3nccc3[C@H]4N)cn2)c1C` [Example 47, (S)-1-(5-((2,3-dimethylphenyl)thio)pyrazin-2-yl)-4′H,6′H-spiro[piperidine-4,5′-pyrrolo[1,2-b]pyrazol]-4′-amine], the results for the pIC50 in experiment [1] and in experiment [2] were ≥ 7.30 and > 7.00, respectively.

`N[C@@H]1c2ccnn2CC12CCN(c1cnc(Sc3cc(F)ccc3F)cn1)CC2` [Example 48, (S)-1-(5-((2,5-difluorophenyl)thio)pyrazin-2-yl)-4′H,6′H-spiro[piperidine-4,5′-pyrrolo[1,2-b]pyrazol]-4′-amine]: the pIC50 in experiment [1] is ≥ 7.30; in experiment [2], > 7.00.

On to `N[C@@H]1c2ccnn2CC12CCN(c1cnc(Sc3ccc(Cl)c(Cl)c3)cn1)CC2` [Example 23, (S)-1-(5-((3,4-dichlorophenyl)thio)pyrazin-2-yl)-4′H,6′H-spiro[piperidine-4,5′-pyrrolo[1,2-b]pyrazol]-4′-amine], for which the results for the pIC50 in experiment [1] and in experiment [2] were ≥ 7.30 and 6.30 to 7.00, respectively.

On to `Cc1cccc(-c2ncc3c(N4CCC5(CC4)Cn4nccc4[C@H]5N)nccn23)c1F` [Example 12, (S)-1-(3-(2-fluoro-3-methylphenyl)imidazo[1,5-a]pyrazin-8-yl)-4′H,6′H-spiro[piperidine-4,5′-pyrrolo[1,2-b]pyrazol]-4′-amine], for which the pIC50 in experiment [1] was ≥ 7.30; in experiment [2], 6.30 to 7.00.

Regarding `N[C@@H]1c2ccnn2CC12CCN(c1cnc(Sc3cccc(C(F)F)c3F)cn1)CC2` [Example 58, (S)-1-(5-((3-(difluoromethyl)-2-fluorophenyl)thio)pyrazin-2-yl)-4′H,6′H-spiro[piperidine-4,5′-pyrrolo[1,2-b]pyrazol]-4′-amine], the pIC50 in experiment [1] was ≥ 7.30; in experiment [2], > 7.00.
